This assay deals with Rabbit platelet rich plasma (PRP). Kind of assay: Inhibitory activity on platelet aggregation in rabbit platelet rich plasma (light transmission). The note with it: added to PRP 30 minutes before agent; for Inhibitory activity on platelet aggregation, PAF: compound 3x10^-6 (unit not given), Platelet activating factor (PAF) 10 mg/ml; for Inhibitory activity on platelet aggregation, ADP / Inhibitory activity on platelet aggregation, AA / Inhibitory activity on platelet aggregation, Collagen: compound 10^-4 (unit not given); for Inhibitory activity on platelet aggregation, ADP: Adenosine diphosphate (ADP) 5 mM; for Inhibitory activity on platelet aggregation, AA: Arachidonic acid (AA) 1 mM; for Inhibitory activity on platelet aggregation, Collagen: aggregating agent collagen. It counts as cell-based. The procedure: 3. Experiment for inhibitory activity on platelet aggregation in rabbit:
Rabbit platelet rich plasma (PRP) was prepared by centrifugation of the citrated blood at 380 g for 10 minutes at 20°C. Test solution (10 µl) was added to PRP (200 µl) 30 minutes before treatment of aggregation agents (10 µl). The extent of aggregation was expressed with the maximum change in light transmission for PRP and platelet poor plasma was taken as a value of 100%

Regarding `COC(=O)C1=C(C)NC(C)=C(C(=O)OC/C=C/c2ccc(Cn3ccnc3)cc2)C1c1cccc([N+](=O)[O-])c1` (stereo not drawn) [Example 1, (E)-3-{4-(1-imidazolylmethyl)phenyl}-2-propen-1-yl methyl 1,4-dihydro-2,6-dimethyl-4-(3-nitrophenyl)pyridine-3,5-dicarboxylate], the “Inhibitory activity on platelet aggregation, PAF” value (“Inhibitory activity … PAF” for short) is on record as 35.4%; the “Inhibitory activity on platelet aggregation, ADP” value (“Inhibitory activity … ADP” below) is 7.3%; the “Inhibitory activity on platelet aggregation, AA” value (shortened to “Inhibitory activity … AA”) came out at 26.2%; the “Inhibitory activity on platelet aggregation, Collagen” value (“Inhibitory activity … Collagen” below) is on record as 19.5%.
`COC(=O)C1=C(C)NC(C)=C(C(=O)OC/C=C/c2ccc(Cc3cccnc3)cc2)C1c1cccc([N+](=O)[O-])c1` (stereo not drawn) [Example 2, Methyl (E)-3-{4-(3-pyridylmethyl)phenyl}-2-propen-1-yl 1,4-dihydro-2,6-dimethyl-4-(3-nitrophenyl)pyridine-3,5-dicarboxylate]: the “Inhibitory activity … PAF” value is recorded as 0%; the “Inhibitory activity … ADP” value was determined as 5.5%; the “Inhibitory activity … AA” value was 12.6%; the “Inhibitory activity … Collagen” value amounted to 23.5%.
In the same order, the values of `COC(=O)C1=C(C)NC(C)=C(C(=O)OC/C=C/c2ccc(-n3ccnc3)cc2)C1c1cccc([N+](=O)[O-])c1` (stereo not drawn) [Example 3, (E)-3-{4-(1-imidazolyl)phenyl}-2-propen-1-yl methyl 1,4-dihydro-2,6-dimethyl-4-(3-nitrophenyl)pylidine-3,5-dicarboxylate] are 0%, 2.2%, 19.3% and 33.2%.
As to `COC(=O)C1=C(C)NC(C)=C(C(=O)OC/C=C/c2ccc(Cn3ccnc3)o2)C1c1cccc([N+](=O)[O-])c1` (stereo not drawn) [Example 4, (E)-3-{5-(1-imidazolylmethyl)-2-furan}-2-propen-1-yl methyl 1,4-dihydro-2,6-dimethyl-4-(3-nitrophenyl)pyridine-3,5-dicarboxylate], the “Inhibitory activity … PAF” value is reported as 95.6%; the “Inhibitory activity … AA” value was determined as 30.8%; the “Inhibitory activity … Collagen” value is 30.5%.
Regarding `COC(=O)C1=C(C)NC(C)=C(C(=O)OC/C=C/c2ccc(Cn3ccnc3)s2)C1c1cccc([N+](=O)[O-])c1` (stereo not drawn) [Example 5, (E)-3-{5-(1-imidazolylmethyl)-2-thiophene}-2-propen-1-yl methyl 1,4-dihydro-2,6-dimethyl-4-(3-nitrophenyl) pyridine-3,5-dicarboxylate], the “Inhibitory activity … PAF” value stood at 100%; the “Inhibitory activity … ADP” value is 12.0%; the “Inhibitory activity … AA” value worked out at 33.4%; the “Inhibitory activity … Collagen” value stood at 32.3%.
In the same order, the values of `COC(=O)C1=C(C)NC(C)=C(C(=O)OC/C=C(\C)c2ccc(Cn3ccnc3)cc2)C1c1cccc([N+](=O)[O-])c1` (stereo not drawn) [Example 6] are 0%, 6.5%, 15.6% and 27.2%.
Consider `CCOC(=O)C1=C(C)NC(C)=C(C(=O)OC/C=C/c2ccc(Cn3ccnc3)cc2)C1c1cccc([N+](=O)[O-])c1` (stereo not drawn) [Example 7, Ethyl (E)-3-{4-(1-imidazolylmethyl)phenyl}-2-propen-1-yl 1,4-dihydro-2,6-dimethyl-4-(3-nitrophenyl)pyridine-3,5-dicarboxylate], for which the “Inhibitory activity … PAF” value is recorded as 0%; the “Inhibitory activity … ADP” value is on record as 4.3%; the “Inhibitory activity … AA” value is given as 17.8%; the “Inhibitory activity … Collagen” value was determined as 30.9%.
